According to paper PMC9000710, “Synthesis and Hemostatic Activity of New Amide Derivatives” (Molecules, 2022):
Entries after “also recorded” stand apart in the source; their conditions may differ. Counter-ions that a name gives are not always drawn. Where a SMILES comes first, the peptide text is derived from it.

Assays:
[1] = Hemolysis assay (stability of erythrocytes); type: cell-based, human; conditions: male, human, heparinized whole blood diluted with saline (erythrocytes)
Experimental: Heparinized whole blood was used from a healthy volunteer. The whole blood (10 mL) was diluted with saline solution (90 mL). For each UV-Vis measurement, 2.5 mL of diluted blood was used. For each blood sample, 1 mL of a saline solution containing hydrochlorides 1–8 at concentrations of 5, 50, and 500 mg/L was added. As a control were used blood samples with the addition of 1% solution of DMSO in saline and 1% solution of SDS in saline. In all cases, the measurements were repeated twice for each concentration. […] The cells were centrifuged, and the absorbance of the supernatant, which contained plasma and lysed erythrocytes, was measured at 540 nm. The percentage of lysis was calculated from a standard curve of lysed erythrocytes treated with SDS [52].

[2] = tested on: human blood plasma; experiment: Prothrombin time (PT) clotting assay; type: biochemical
Experimental: (§1) Human blood plasma was isolated from fresh buffy coats (collected onto the citrate-dextrose solution—ACD) purchased from the Regional Centre of Blood Donation and Blood Treatment in Lodz, Poland. In the isolation procedure, the buffy coats (60 mL units) were divided into volumes of 10 mL and centrifuged (4000 rpm/15 min) in 15 mL tubes. Next, 1 mL solutions of each amide 1–8 were prepared in distilled water at concentrations of 10, 25, and 50 mg/L. Then, 450 μL of plasma and 50 μL of each amide at the tested concentrations were placed into 1.5 mL vials. The vials were vortexed (Vortex Biosan V-1 plus), incubated at 37 °C on a thermoblock (Dry Block Thermostat Biosan TDB-120), and analyzed using a Kselmed K-3002 OPTIC coagulometer (Grudziądz, Poland), based on the manufacturer’s protocols (described below). The control sample was native blood plasma, untreated with any of the examined substances.
Fifty microliters of control plasma and plasma samples treated with the amides were transferred to measuring cuvettes and placed in the thermoblock module (37 °C) of a coagulometer (KSELMED, K-3002 Optic). Then, 100 μL of Dia-PT reagent (DIAGON Kft. Hungary; cat. no. 81100) was added. Measurements were started immediately.

[3] = tested on: human blood plasma; experiment: Activated partial thromboplastin time (aPTT) clotting assay; type: biochemical; conditions: for aPTT, effect versus control in words: tested at 10, 25, 50 mg/L
Experimental: as §1
Fifty microliters of control plasma and plasma samples treated with the amides were transferred to measuring cuvettes and placed in the thermoblock module (37 °C) of the coagulometer (KSELMED, K-3002 Optic). Then, 50 μL of Dia-APTT reagent (DIAGON Kft. Hungary; cat. no. 72048) was added. The mixture was incubated for 180 s at 37 °C. Finally, 50 μL of reagent Dia-CaCl2 (DIAGON Kft. Hungary; cat. no. 41192) was added. Measurements were started immediately.

[4] = tested on: human blood plasma; experiment: Thrombin time (TT) clotting assay; type: biochemical
Experimental: as §1
Both 100 μL of control plasma and plasma samples treated with the amides were transferred to measuring cuvettes, which were placed in the thermoblock module (37 °C) of the coagulometer (KSELMED K-3002 Optic). Then, 100 μL of thrombin solution (4.5 U/mL, in 0.9% NaCl; Biomed, Lublin, Poland) was added to the cuvette. Measurements were started immediately.

[5] = tested on: human blood plasma; experiment: Clot formation and fibrinolysis (CFF) assay; type: biochemical; conditions: for Amax (maximum of fibrin clot absorbance at 360 nm) / VmaxC (of Fibrin Polymerization) / VmaxF (of Fibrin Clot Lysis): control plasma assumed as 100%, mean ± SD, n = 5–7; for effect on fibrin polymerization (VmaxC) in words: tested at 10, 25, 50 mg/L
Excerpt: The CFF assay enables analysis of both the blood plasma coagulation process and fibrinolysis efficiency. The thrombin enzyme in the reagent mixture initiates blood plasma fibrinogen polymerization, leading to an increase in absorbance in the sample until the maximal absorbance (Amax) is attained. The fibrinolytic activity of blood plasma is induced by the tissue-type plasminogen activator (t-PA). The activation of fibrinolysis in the tested samples leads to fibrin clot degradation and decreases the absorbance to the baseline.
Figure 11 An exemplary curve of blood plasma coagulation and clot lysis recorded during the clot formation and fibrinolysis (CFF) assay. The first step in the CFF test involves activation of the blood plasma coagulation cascade and fibrin clot formation (1). It is characterized by the maximal velocity of the fibrin polymerization parameter (VmaxC). The maximal absorbance (Amax) peak corresponds to the fibrin stabilization phase and is an indicator of fibrin clot thickness (2). The third step of the CFF assay covers the activation of fibrinolytic mechanisms and fibrin clot degradation (3) and is described by the maximal velocity of clot lysis (VmaxF).
Thrombin was purchased from BioMed (Lublin, Poland). A tissue-type plasminogen activator (Actilyse®) was purchased from Boehringer Ingelheim, Ingelheim am Rhein, Germany. Kinetic measurements were executed using a SpectrostarNano microplate spectrophotometer (BMG LabTech, Ortenberg, Germany).
Measurements were performed using a kinetic model, as described in our previous work. Briefly, blood plasma was preincubated with the examined substances (at final concentrations of 10, 25, and 50 mg/L) for 15 min at 37 °C. Then, 100 μL of blood plasma was added to microtiter plate wells, which was followed by 200 μL of the reagent mixture (0.75 U/mL thrombin, 225 ng/mL t-PA and 7.5 mM CaCl2) suspended in tris-buffered saline (0.05 M TBS, 0.9% NaCl; pH 7.4). Measurements of absorbance changes were started immediately and continued for 60 min at 37 °C, λ = 360 nm. The following parameters were used to determine the effects of the examined substances on the coagulation and fibrinolytic properties of the blood plasma: the maximal velocity of fibrinogen polymerization (VmaxC), which is an indicator of the plasma coagulation efficiency; the maximal absorbance (Amax), which is an indicator of the fibrin clot stabilization and its thickness; the maximal velocity of clot lysis (VmaxF), which is an indicator of blood plasma fibrinolytic activity.

[6] = two lower concentrations (10 and 25 mg/L)

Row | Structure (SMILES) | PT Time [% of Control] ([2]; c 10 mg/L) | PT Time [% of Control] ([2]; c 25 mg/L) | PT Time [% of Control] ([2]; c 50 mg/L) | prothrombin time, effect versus control in words [2, 6] | aPTT Time [% of Control] ([3]; c 10 mg/L) | aPTT Time [% of Control] ([3]; c 25 mg/L) | aPTT Time [% of Control] ([3]; c 50 mg/L) | aPTT, effect versus control in words [3] | TT Time [% of Control] ([4]; c 10 mg/L) | TT Time [% of Control] ([4]; c 25 mg/L) | TT Time [% of Control] ([4]; c 50 mg/L) | Amax (maximum of fibrin clot absorbance at 360 nm) ([5]; 10 mg/L) [%] | VmaxC (of Fibrin Polymerization) ([5]; 10 mg/L) [%] | VmaxF (of Fibrin Clot Lysis) ([5]; 10 mg/L) | Amax (maximum of fibrin clot absorbance at 360 nm) ([5]; 25 mg/L) [%] | VmaxC (of Fibrin Polymerization) ([5]; 25 mg/L) [%] | VmaxF (of Fibrin Clot Lysis) ([5]; 25 mg/L) | Amax (maximum of fibrin clot absorbance at 360 nm) ([5]; 50 mg/L) [%] | VmaxC (of Fibrin Polymerization) ([5]; 50 mg/L) [%] | VmaxF (of Fibrin Clot Lysis) ([5]; 50 mg/L) | further results
1 | NCCCCCC(=O)NCC1CCC(C(=O)O)CC1 (centres unmarked) [Amide 3, 6-((((1s,4s)-4-Carboxycyclohexyl)methyl)amino)-6-oxohexan-1-aminium chloride] | 94.9 ± 2.2 % of Control | 95.2 ± 3.0 % of Control | 97.0 ± 3.6 % of Control | decreased | 94.8 ± 4.5 % of Control | 94.7 ± 4.1 % of Control | 96.3 ± 2.8 % of Control | significantly decreased | 100.1 ± 2.6 % of Control | 100.8 ± 6.9 % of Control | 97.2 ± 4.3 % of Control | 107.21 ± 6.90 | 105.61 ± 7.06 | 93.23 ± 16.83% | 104.49 ± 9.80 | 103.88 ± 9.73 | 97.05 ± 24.39% | 112.98 ± 8.40 | 109.78 ± 6.46 | 102.82 ± 20.01% | hemolysis at 45 min, 5 mg/L ([1]; c 5 mg/L, 45 min): 0.44%; hemolysis at 120 min, 5 mg/L ([1]; c 5 mg/L, 120 min): 0.74%; hemolysis at 240 min, 5 mg/L ([1]; c 5 mg/L, 240 min): 0.41%; hemolysis at 45 min, 50 mg/L ([1]; c 50 mg/L, 45 min): 0%; hemolysis at 120 min, 50 mg/L ([1]; c 50 mg/L, 120 min): 0%; hemolysis at 240 min, 50 mg/L ([1]; c 50 mg/L, 240 min): 0.26%; hemolysis at 45 min, 500 mg/L ([1]; c 500 mg/L, 45 min): 0.47%; hemolysis at 120 min, 500 mg/L ([1]; c 500 mg/L, 120 min): 0.65%; hemolysis at 240 min, 500 mg/L ([1]; c 500 mg/L, 240 min): 0.23%
2 | NCC(=O)NCC(=O)O [Amide 5, Glycylglycine hydrochloride] (H-Gly-Gly-OH) | 95.0 ± 10.5 % of Control | 92.0 ± 8.5 % of Control | 93.0 ± 8.3 % of Control |  | 98.8 ± 5.8 % of Control | 101.1 ± 4.9 % of Control | 100.8 ± 2.6 % of Control |  | 99.1 ± 6.1 % of Control | 99.0 ± 4.7 % of Control | 97.8 ± 3.3 % of Control | 106.44 ± 1.78 | 105.80 ± 2.97 | 90.08 ± 13.68% | 107.12 ± 4.65 | 105.88 ± 3.76 | 85.12 ± 16.98 % | 113.43 ± 7.86 | 109.83 ± 1.46 | 89.46 ± 10.48 % | procoagulant activity judged from VmaxC and Amax, in words ([5]; among the tested compounds): most evident procoagulant activity; Amax parameter, effect in words ([5]; full range of tested concentrations (10–50 µg/mL)): significantly higher; effect on fibrin polymerization (VmaxC) in words [5]: Mild pro-coagulant effects
3 | NC[C@H]1CC[C@H](C(=O)O)CC1 [TA, trans-4-(aminomethyl)cyclohexane carboxylic acid, reference compound] |  |  |  | decreased |  |  |  | significantly decreased |  |  |  | 106.67 ± 3.79 | 101.38 ± 7.89 | total inhibition | 105.87 ± 6.23 | 104.75 ± 9.98 | total inhibition | 106.64 ± 4.65 | 104.85 ± 12.06 | total inhibition | prothrombin time, effect versus control in words ([2]; concentration not specified (10, 25, 50 mg/L tested), listed as tranexamic acid): slightly shortened; also recorded: slightly but statistically significantly reduced; aPTT, effect versus control in words ([3]; listed as tranexamic acid): slightly shortened; TT, effect versus control in words ([4]; all used concentrations (10, 25, 50 mg/L)): no effects; effect on fibrin polymerization (VmaxC) in words [5]: did not influence
